The values below come from patent US20080194574A1, “Pyrazine Derivatives As Effective Compounds Against Infectious Diseases” (AXXIMA PHARMACEUTICALS AG, priority 2003, published 2008).

Where only a bound is given, the exact number is not on record here.

The target in one experiment is T1, viral kinase pUL-97 (Human cytomegalovirus, UniProt P16788).
T1 construct: The pUL-97 gene was cloned into a baculovirus vector; GST (glutathione S-transferase) (N); made in house; host or cells: Sf9 insect cells, baculovirus
T1 sequence (P16788 whole entry): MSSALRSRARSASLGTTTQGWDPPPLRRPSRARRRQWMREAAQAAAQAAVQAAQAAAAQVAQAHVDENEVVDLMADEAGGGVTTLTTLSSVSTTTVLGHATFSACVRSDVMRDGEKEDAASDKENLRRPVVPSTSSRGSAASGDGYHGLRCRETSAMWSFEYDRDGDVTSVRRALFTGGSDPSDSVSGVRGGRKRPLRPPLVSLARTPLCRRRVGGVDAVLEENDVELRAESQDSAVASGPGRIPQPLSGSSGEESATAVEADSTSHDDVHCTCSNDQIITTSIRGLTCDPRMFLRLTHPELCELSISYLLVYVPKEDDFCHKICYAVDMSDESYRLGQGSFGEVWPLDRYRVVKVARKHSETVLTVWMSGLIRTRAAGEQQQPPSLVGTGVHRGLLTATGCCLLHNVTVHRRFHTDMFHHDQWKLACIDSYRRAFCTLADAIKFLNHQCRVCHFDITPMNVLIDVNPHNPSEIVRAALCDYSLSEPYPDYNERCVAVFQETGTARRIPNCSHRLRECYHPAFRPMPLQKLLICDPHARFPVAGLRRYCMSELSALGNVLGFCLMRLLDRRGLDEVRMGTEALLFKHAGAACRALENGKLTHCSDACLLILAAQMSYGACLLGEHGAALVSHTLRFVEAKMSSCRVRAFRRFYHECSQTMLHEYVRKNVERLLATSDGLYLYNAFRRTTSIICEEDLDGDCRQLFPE
The experiment in a line: UL97 kinase assay on Immobilon plate. Type of experiment: biochemical. Conditions: inhibition of UL 97 kinase activity; class by IC50 / % inhibition at 10 μM or 100 μM; read-out: Activity Class [A, B, C]. The protocol: UL97 Kinase-Assay on Immobilon Plate
The effect of pyrazine derivatives of this invention was tested on the activity of the viral kinase pUL-97. This kinase is derived from human cytomegalovirus (HCMV) (M. Marschall et al., Journal of General Virology, 2001, 82, 1439-1450). The pUL-97 gene was cloned into a baculovirus vector in order to produce GST (glutathione S-transferase) fusion protein. Insect cells (Sf9) were infected and GST-UL-97 purified via glutathione affinity columns according to standard procedures.
The pUL-97 kinase reaction was performed as described (M. Marschall et al., Journal of General Virology, 2001, 82, 1439-1450). Briefly, 10 μl Assay buffer (3 μM ATP, 60 μg/ml myelin basic protein (MBP) as substrate), 1.0 μCi γ-[^33P]ATP and 10 μl Basic buffer (20 mM Tris-HCl pH7.5, 0.5 mM MnCl2, 1 mM DTT (Dithiothreitol)) were given to the test tube before adding various concentrations of pyrazine derivatives. The reaction was started by adding 0.2 μl pUL-97 kinase, purified from infected Sf9-insect cells as described above. The total volume was adjusted with Basic buffer to a final volume of 30 μl. The reaction mix was incubated for 1 hr at 30° C. For negative control, 10 μl 0.1M EDTA (Ethylene Diamine tetraacetate) was added to reaction mix before addition of pUL-97 protein kinase. The reaction was stopped by addition of 10 μl 0.1 M EDTA.
Measuring Incorporation of Radioactivity:
The Immobilon plate (Millipore) was rinsed with 50 μl methanol/well. Following addition of 100 μl 0.1 M EDTA, 20 μl of each kinase reaction mix was added to one well of the Immobilon plate. Each well was washed 4× with 250 μl 0.75% phosphoric acid and 1× with 50 μl methanol. After addition of 50 μl scintillation cocktail (Roth, Germany) per well incorporation of radioactivity was measured using a Betareader (Wallac) and enzymatic activity calculated.
As to `Fc1ccccc1N1CCN(c2cncc(-c3cccc4ccccc34)n2)CC1` [compound 249, 4-(2-Fluoro-phenyl)-6′-naphthalen-1-yl-3,4,5,6-tetrahydro-2H-[1,2′]bipyrazinyl], the IC50 was in the range of 10 to 100 µM.

Regarding `Cc1ccc(-c2cncc(N3CCN(c4ccc(F)cc4)CC3)n2)cc1` [compound 233, 4-(4-Fluoro-phenyl)-6′-p-tolyl-3,4,5,6-tetrahydro-2H-[1,2′]bipyrazinyl], the IC50 was 1 to 10 µM. On the same count and under the same terms, next, `Fc1ccc(N2CCN(c3cncc(-c4ccc5ccccc5c4)n3)CC2)cc1` [compound 267, 4-(4-Fluoro-phenyl)-6′-naphthalen-2-yl-3,4,5,6-tetrahydro-2H-[1,2′]bipyrazinyl]: under 1 µM; `COc1cccc(N2CCN(c3cncc(-c4csc5ccccc45)n3)CC2)c1` [compound 286, 6′-Benzo[b]thiophen-3-yl-4-(3-methoxy-phenyl)-3,4,5,6-tetrahydro-2H-[1,2′]bipyrazinyl]: 1 to 10 µM. Regarding `CC(=O)c1ccc(N2CCN(c3cncc(-c4cccc(F)c4)n3)CC2)cc1` [compound 214, 1-{4-[6′-(3-Fluoro-phenyl)-2,3,5,6-tetrahydro-[1,2′]bipyrazinyl-4-yl]-phenyl}-ethanone], the IC50 fell in the range of 10 to 100 µM.

Consider `Cc1ccc(N2CCN(c3cncc(-c4csc5ccccc45)n3)CC2)cc1` [compound 231, 6′-Benzo[b]thiophen-3-yl-4-p-tolyl-3,4,5,6-tetrahydro-2H-[1,2′]bipyrazinyl], for which the IC50 fell in the range of 10 to 100 µM. Still for that read-out and setting: as for `Fc1cccc(-c2cncc(N3CCN(c4ccccc4F)CC3)n2)c1` [compound 198, 4-(2-Fluoro-phenyl)-6′-(3-fluoro-phenyl)-3,4,5,6-tetrahydro-2H-[1,2′]bipyrazinyl], the figure is 10 to 100 µM.

The same experiment, now with this note: inhibition of UL 97 kinase activity; class by IC50 / % inhibition at 10 or 100 μM; read-out: Activity Class [A, B, C].
Turning to `N#Cc1ccccc1N1CCN(c2cncc(-c3ccc(F)c(Cl)c3)n2)CC1` [compound 62, 2-[6′-(3-Chloro-4-fluoro-phenyl)-2,3,5,6-tetrahydro-[1,2′]bipyrazinyl-4-yl]-benzonitrile], the IC50 fell in the range of 1 to 10 µM. Consider `CC(=O)c1cccc(-c2cncc(N3CCN(c4ccncc4)CC3)n2)c1` [compound 132, 1-[3-(4-Pyridin-4-yl-3,4,5,6-tetrahydro-2H-[1,2′]bipyrazinyl-6′-yl)-phenyl]-ethanone], for which the IC50 was in the range of 1 to 10 µM. In the case of `COc1ccc(N2CCN(c3cncc(-c4cc(C)cc(C)c4)n3)CC2)cc1OC` [compound 170, 4-(3,4-Dimethoxy-phenyl)-6′-(3,5-dimethyl-phenyl)-3,4,5,6-tetrahydro-2H-[1,2′]bipyrazinyl], the IC50 lay in the range of 10 to 100 µM. Consider `FC(F)(F)c1cccc(N2CCN(c3cncc(-c4cc5ccccc5s4)n3)CC2)c1` [compound 160, 6′-Benzo[b]thiophen-2-yl-4-(3-trifluoromethyl-phenyl)-3,4,5,6-tetrahydro-2H-[1,2′]bipyrazinyl], for which the IC50 lay in the range of 1 to 10 µM. For the compound `c1ccc2cc(-c3cncc(N4CCN(c5ccncc5)CC4)n3)ccc2c1` [Comp. 72, 6′-Naphthalen-2-yl-4-pyridin-4-yl-3,4,5,6-tetrahydro-2H-[1,2-′]bipyrazinyl], the IC50 was under 1 µM. The same measure, in the same setting: as for `CN(C)c1ccc(-c2cncc(N3CCN(c4ccccc4F)CC3)n2)cc1` [compound 195, {4-[4-(2-Fluoro-phenyl)-3,4,5,6-tetrahydro-2H-[1,2′]bipyrazinyl-6′-yl]-phenyl}-dimethyl-amine], the figure is 1 to 10 µM; as for `CSc1ccc(-c2cncc(N3CCN(c4cccc(Cl)c4)CC3)n2)cc1` [compound 102, 4-(3-Chloro-phenyl)-6′-(4-methylsulfanyl-phenyl)-3,4,5,6-tetrahydro-2H-[1,2′]bipyrazinyl], 1 to 10 µM.

As for `CC(=O)c1ccc(N2CCN(c3cncc(-c4ccccc4C(C)=O)n3)CC2)cc1` [compound 146, 1-{2-[4-(4-Acetyl-phenyl)-3,4,5,6-tetrahydro-2H-[1,2′]bipyrazinyl-6′-yl]-phenyl}-ethanone], the IC50 lay within 10 to 100 µM. On the same count and under the same terms, next, `CC(=O)c1ccc(N2CCN(c3cncc(-c4ccc(F)c(Cl)c4)n3)CC2)cc1` [compound 151]: 10 to 100 µM.
